Where two headings read alike, the source gives them in different places.
What was measured:
[1] = Stability of the crystals in the solid state; assay type: physicochemical; settings: isolated solid
[2] = slurries in THF, acetonitrile, acetone and DMF/acetone at room temperature
From the text: Form N-4 of the hydrochloric acid salt of the free base I crystallizes from organic solvents, preferably DMF/acetone.

[3] = Experimental: Moisture sorption isotherms were collected in a VTI SGA-100 Symmetric Vapor Analyzer using approximately 10 mg of sample. The sample was dried at 60° C. until the loss rate of 0.0005 wt %/min was obtained for 10 minutes. The sample was tested at 25° C. (for free base 1 and N-1 HCl salt) or 30° C. (for N-4 HCl salt) and 3 or 4, 5, 15, 25, 35, 45, 50, 65, 75, 85, and 95% RH. Equilibration at each RH was reached when the rate of 0.0003 wt %/min for 35 minutes was achieved or a maximum of 600 minutes.

SMILES | stability in the solid state form [1] | relative stability of the crystal form in slurries ([2]; listed as Form N-1) | hygroscopicity / water uptake (moisture-sorption isotherm) ([3]; about 25 to about 75% RH at 25° C.) | hygroscopicity / water uptake (moisture-sorption isotherm) ([3]; about 25 to about 75% RH at 25° C., listed as Form N-1 crystals of the hydrochloric acid salt of free base I) | relative stability of the crystal form in slurries ([2]; listed as Form N-4) | hygroscopicity / water uptake (moisture-sorption isotherm) ([3]; about 25 to about 75% RH at 30° C.) | hygroscopicity / water uptake (moisture-sorption isotherm) ([3]; about 25 to about 75% RH at 30° C., listed as Form N-4 crystals of free base I)
CCCNC(=O)c1cn2ncnc(Nc3cc(C(=O)NC4CC4)ccc3C)c2c1C.Cl [Form N-1 hydrochloride salt, hydrochloric acid salt of 4-[[5-[(cyclopropylamino)carbonyl]-2-methylphenyl]amino]-5-methyl-N-propylpyrrolo[2,1-f][1,2,4]triazine-6-carboxamide] | remain stable in the solid state form | convert to Form N-4 | non-hygroscopic | negligible water uptake | – | – | –
CCCNC(=O)c1cn2ncnc(Nc3cc(C(=O)NC4CC4)ccc3C)c2c1C.Cl [Form N-4 salt, hydrochloric acid salt of 4-[[5-[(cyclopropylamino)carbonyl]-2-methylphenyl]amino]-5-methyl-N-propylpyrrolo[2,1-f][1,2,4]triazine-6-carboxamide] | – | – | – | – | stable form at room temperature | non-hygroscopic | negligible water uptake

Reference: patent publication US20060235020A1, “Process for preparing salts of 4-[[5-[(cyclopropylamino)carbonyl]-2-methylphenyl]amino]-5-methyl-N-propylpyrrolo[2,1-f][1,2,4]triazine-6-carboxamide and novel stable forms produced therein” (priority 2005, published 2006)
